Measured values from US8669266B2, “Quinoline-carboxamide derivatives as P2Y12 antagonists” (Sanofi, priority 2007, dated 2014).

Biological target: human P2Y12 receptor (Homo sapiens (Human), UniProt Q9H244)
Experiment: Human P2Y12 recombinant cell membrane binding assay with 33P 2MeS-ADP
Details: CHO cell membranes with recombinant human P2Y12; competition against 33P 2MeS-ADP
Experimental: The ability of the compounds of the formula I to inhibit the P2Y12 receptor can be assessed by determining the concentration of the compound of the formula I that binds to the human P2Y12 Recombinant Cell Membrane Binding Assay with 33P 2MeS-ADP.
Human P2Y12 Recombinant Cell Membrane Binding Assay
The ability of a test compound to bind to the P2Y12 receptor was evaluated in a recombinant cell membrane binding assay. In this competitive binding assay, the test compound competed against a radiolabeled agonist for binding to the P2Y12 receptor, expressed on the cell membrane. Inhibition of binding of the labeled material was measured and correlated to the amount and potency of the test compound.
As source of P2Y12, a membrane preparation was prepared from Chinese Hamster Ovary (CHO) cells with recombinant expression of the human P2Y12 receptor according to standard procedures.
Next, wells were washed four times with 400 μl/well of stop buffer on a plate vacuum. The plate was disassembled and allowed to air dry overnight with the filter side up over night. […] The top of the filter plate was sealed with plastic plate covers. The sealed filter plate were incubated 2 hours at RT. A Microbeta Scintillation Counter was used to measure counts.
Compounds were diluted as 10 mM DMSO stocks and tested in a four-point, five-fold dilution series run in triplicate beginning at 10 μM, final concentration. Data were analyzed using a four-parameter curve fit with a fixed minimum and maximum experimentally defined as the average positive and negative controls on each plate.

Sequence of human P2Y12 receptor (Q9H244 whole entry): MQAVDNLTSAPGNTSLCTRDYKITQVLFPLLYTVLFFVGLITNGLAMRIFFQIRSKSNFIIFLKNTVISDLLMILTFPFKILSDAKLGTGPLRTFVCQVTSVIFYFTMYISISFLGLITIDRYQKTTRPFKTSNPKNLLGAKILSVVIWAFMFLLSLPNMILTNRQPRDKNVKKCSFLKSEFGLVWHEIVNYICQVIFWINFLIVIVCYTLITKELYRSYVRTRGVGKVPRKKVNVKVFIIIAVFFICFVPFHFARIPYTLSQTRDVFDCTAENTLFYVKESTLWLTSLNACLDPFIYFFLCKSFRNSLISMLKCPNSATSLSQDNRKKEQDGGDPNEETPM

Structure (SMILES)	IC50
CCOC(=O)[C@@H]1CCCN1C(=O)COc1cc(C(=O)N[C@@H](CCC(=O)O)C(=O)N2CCN(C(=O)OCC)CC2)nc2cc(C)ccc12 [Example 11, 4-[(S)-4-Carboxy-2-({4-[2-((S)-2-ethoxycarbonyl-pyrrolidin-1-yl)-2-oxo-ethoxy]-7-methyl-quinoline-2-carbonyl}-amino)-butyryl]-piperazine-1-carboxylic acid ethyl ester]	132 nM
CCOC(=O)N1CCN(C(=O)[C@H](CCC(=O)O)NC(=O)c2cc(OCC(=O)N3CCC[C@H]3C(=O)NCC(F)(F)F)c3ccccc3n2)CC1 [Example 121, 4-{(S)-4-Carboxy-2-[(4-{2-oxo-2-[(S)-2-(2,2,2-trifluoro-ethylcarbamoyl)-pyrrolidin-1-yl]-ethoxy}-quinoline-2-carbonyl)-amino]-butyryl}-piperazine-1-carboxylic acid ethyl ester]	67 nM
CCOC(=O)N1CCN(C(=O)[C@H](CCC(=O)O)NC(=O)c2cc(OCC(=O)N3CCCC3c3ccccc3)c3ccccc3n2)CC1 (stereo partly drawn) [Example 334, 4-[(S)-4-Carboxy-2-({4-[2-oxo-2-(2-phenyl-pyrrolidin-1-yl)-ethoxy]-quinoline-2-carbonyl}-amino)-butyryl]-piperazine-1-carboxylic acid ethyl ester]	102 nM
CCOC(=O)N1CCN(C(=O)[C@H](CCC(=O)O)NC(=O)c2cc(O[C@H](C)C(=O)N3CCC[C@H]3C(=O)NCC3CC3)c3ccc(C)cc3n2)CC1 [Example 300, 4-{(S)-4-Carboxy-2-[(4-{(R)-2-[(S)-2-(cyclopropylmethyl-carbamoyl)-pyrrolidin-1-yl]-1-methyl-2-oxo-ethoxy}-7-methyl-quinoline-2-carbonyl)-amino]-butyryl}-piperazine-1-carboxylic acid ethyl ester]	5 nM
CCOC(=O)N1CCN(C(=O)[C@H](CC(=O)O)NC(=O)c2cc(OCC(=O)N3CCC[C@H]3C(=O)NC3CCC3)c3cc(F)c(C)cc3n2)CC1 [Example 270, 4-[(S)-3-Carboxy-2-({4-[2-((S)-2-cyclobutylcarbamoyl-pyrrolidin-1-yl)-2-oxo-ethoxy]-6-fluoro-7-methyl-quinoline-2-carbonyl}-amino)-propionyl]-piperazine-1-carboxylic acid ethyl ester]	9 nM
CCOC(=O)N1CCN(C(=O)[C@H](CCC(=O)OCC2CCCC2)NC(=O)c2cc(OCC(=O)N3CCC[C@H]3C(=O)NC3CCC3)c3ccc(C)cc3n2)CC1 [Example 246, 4-[(S)-2-({4-[2-((S)-2-Cyclobutylcarbamoyl-pyrrolidin-1-yl)-2-oxo-ethoxy]-7-methyl-quinoline-2-carbonyl}-amino)-4-cyclopentylmethoxycarbonyl-butyryl]-piperazine-1-carboxylic acid ethyl ester]	71 nM
CCOC(=O)N1CCN(C(=O)[C@H](CCC(=O)O)NC(=O)c2cc(O[C@H](C)C(=O)N3CCC[C@H]3C(=O)N3CCCCC3)c3ccc(C)cc3n2)CC1 [Example 296, 4-{(S)-4-Carboxy-2-[(7-methyl-4-{(R)-1-methyl-2-oxo-2-[(S)-2-(piperidine-1-carbonyl)-pyrrolidin-1-yl]-ethoxy}-quinoline-2-carbonyl)-amino]-butyryl}-piperazine-1-carboxylic acid ethyl ester]	12 nM
CCOC(=O)N1CCN(C(=O)[C@H](CCC(=O)O)NC(=O)c2cc(OCC(=O)N3CCC[C@H]3C(=O)NC3CCC3)c3cc(F)c(F)cc3n2)CC1 [Example 196, 4-[(S)-4-Carboxy-2-({4-[2-((S)-2-cyclobutylcarbamoyl-pyrrolidin-1-yl)-2-oxo-ethoxy]-6,7-difluoro-quinoline-2-carbonyl}-amino)-butyryl]-piperazine-1-carboxylic acid ethyl ester]	65 nM

The next lines start with the values.

IC50	Structure (SMILES)
21 nM	CCCCOC(=O)N1CCN(C(=O)[C@H](CCC(=O)O)NC(=O)c2cc(OCC(=O)N3CCC[C@H]3C(=O)NC3CCC3)c3ccc(C)cc3c2)CC1 [Example 511, 4-[(S)-4-Carboxy-2-({4-[2-((S)-2-cyclobutylcarbamoyl-pyrrolidin-1-yl)-2-oxo-ethoxy]-7-methyl-naphthalene-2-carbonyl}-amino)-butyryl]-piperazine-1-carboxylic acid butyl ester]
3 nM	Cc1ccc2c(OCC(=O)N3CCC[C@H]3C(=O)NC3CCC3)cc(C(=O)NCC(=O)N3CCN(C(=O)OCCC(F)(F)F)CC3)nc2c1 [Example 679, 4-[2-({4-[2-((S)-2-Cyclobutylcarbamoyl-pyrrolidin-1-yl)-2-oxo-ethoxy]-7-methyl-quinoline-2-carbonyl}-amino)-acetyl]-piperazine-1-carboxylic acid 3,3,3-trifluoro-propyl ester]
33 nM	CCCCOC(=O)N1CC(NC(=O)[C@H](CCC(=O)O)NC(=O)c2cc(OCC(=O)N3CCC[C@H]3C(=O)NC3CCC3)c3ccccc3n2)C1 [Example 424, 3-[(S)-4-Carboxy-2-({4-[2-((S)-2-cyclobutylcarbamoyl-pyrrolidin-1-yl)-2-oxo-ethoxy]-quinoline-2-carbonyl}-amino)-butyrylamino]-azetidine-1-carboxylic acid butyl ester]
5 nM	CCCCOC(=O)N1CCN(C(=O)CNC(=O)c2cc(OCC(=O)N3CCC[C@H]3C(=O)NC3CCC3)c3ccccc3n2)CC1 [Example 673, 4-[2-({4-[2-((S)-2-Cyclobutylcarbamoyl-pyrrolidin-1-yl)-2-oxo-ethoxy]-quinoline-2-carbonyl}-amino)-acetyl]-piperazine-1-carboxylic acid butyl ester]

Test system: human platelet rich plasma
Experiment: Inhibition of human platelet aggregation, 96-well assay (ADP-induced, platelet rich plasma)
Format: cell-based
Details: 20 min, 96-well plate, human PRP, aggregation induced by ADP, AUC of absorbance over 20 minutes, 37° C.
Experimental: Alternatively to a binding assay which measures a compound's ability to bind to the P2Y12 receptor, the effect on cellular function was also determined. This ability of the compound was evaluated in two platelet aggregation assays: in 96-well plates and with the “Born”-method using single cuvettes.
Whole blood was collected from healthy volunteers using 20 ml syringes containing 2 ml of ACD-A Aqua-Citrat-Dextrose-A, Fresenius). The anticoagulated whole blood was transferred into 15 ml polypropylene conical tubes (10 ml per tube). The tubes were centrifuged for 15 minutes at 150×g at RT without using the centrifuge brake. This procedure leads to a pellet of cellular components and a supernatant of platelet rich plasma (PRP). The PRP layer was collected from each tube and pooled for each donor. To avoid carry over of cellular components following centrifugation, approximately 5 ml of PRP was left in the tube. The platelet concentration was determined using a Coulter Counter.
The 15 ml tubes containing the pellet of cellular components were centrifuged again for 10 minutes at 1940×g. This pelleted out most particulate blood constituents remaining, leaving a layer of Platelet Poor Plasma (PPP). The PPP was collected for each donor. The PRP layer, previously set aside, was diluted with PPP to a final concentration of approximately 3×E8 platelets/ml with the PPP.
The human platelet aggregation assay is performed in 96-well plates using a microtiter plate reader (SpectraMax Plus 384 with SoftMax Pro software from Molecular Devices).
In the plate 15 μl of test compound at 10× final concentration in NaCl is mixed with 120 μl fresh PRP and incubated for 5 minutes. Following that incubation period, 15 μl of 40 μM ADP is added to the reaction mix. This addition of ADP is sufficient to induce aggregation in the absence of an inhibitor. The plates are then transferred to the microplate reader and aggregation is measured over 20 minutes. The instrument settings include: Absorbance at 650 nm, run time 20 minutes with readings in 1-minute intervals and 50 seconds shaking between readings all performed at 37° C. Results of the assay are expressed as % inhibition, and are calculated using area under curve (AUC) of the absorbance over 20 minutes.

Structure (SMILES)	IC50
CCOC(=O)N1CCN(C(=O)[C@H](CCC(=O)O)NC(=O)c2cc(OCC(=O)N3CCC[C@H]3C(=O)NCC3CCC3)c3ccc(C)cc3n2)CC1 [Example 308, 4-{(S)-4-Carboxy-2-[(4-{2-[(S)-2-(cyclobutylmethyl-carbamoyl)-pyrrolidin-1-yl]-2-oxo-ethoxy}-7-methyl-quinoline-2-carbonyl)-amino]-butyryl}-piperazine-1-carboxylic acid ethyl ester]	60 nM
CCOC(=O)N1CCN(C(=O)[C@H](CCC(=O)O)NC(=O)c2cc(OCC(=O)N3CCC(O)CC3)c3ccc(C)cc3n2)CC1 [Example 10, 4-[(S)-4-Carboxy-2-({4-[2-(4-hydroxy-piperidin-1-yl)-2-oxo-ethoxy]-7-methyl-quinoline-2-carbonyl}-amino)-butyryl]-piperazine-1-carboxylic acid ethyl ester]	180 nM
CCNC(=O)[C@@H]1CCCN1C(=O)COc1cc(C(=O)N[C@@H](CCC(=O)O)C(=O)N2CCN(C(=O)OCC)CC2)nc2cccc(F)c12 [Example 179, 4-[(S)-4-Carboxy-2-({4-[2-((S)-2-ethylcarbamoyl-pyrrolidin-1-yl)-2-oxo-ethoxy]-5-fluoro-quinoline-2-carbonyl}-amino)-butyryl]-piperazine-1-carboxylic acid ethyl ester]	30 nM

Further lines, results first:

IC50	Structure (SMILES)
73 nM	CCCCOC(=O)N1CCN(C(=O)[C@H](CCC(=O)O)NC(=O)c2cc(OCC(=O)N3CCC[C@H]3C#N)c3ccc(C)cc3n2)CC1 [Example 460, 4-[(S)-4-Carboxy-2-({4-[2-((S)-2-cyano-pyrrolidin-1-yl)-2-oxo-ethoxy]-7-methyl-quinoline-2-carbonyl}-amino)-butyryl]-piperazine-1-carboxylic acid butyl ester]
65 nM	CCCCOC(=O)N1CCN(C(=O)[C@H](CCC(=O)O)NC(=O)c2cc(OCC(=O)N3CC(O)C3)c3ccc(C)cc3n2)CC1 [Example 472, 4-[(S)-4-Carboxy-2-({4-[2-(3-hydroxy-azetidin-1-yl)-2-oxo-ethoxy]-7-methyl-quinoline-2-carbonyl}-amino)-butyryl]-piperazine-1-carboxylic acid butyl ester]
